Columns and labels:
Format in all cases: in vivo
[1] = tested on: blackgrass (Alopecurus myosuroides); assay: Test A1 preemergence, blackgrass
Procedure, shortened: (§1)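 Herbicidal response was scored on plants treated either preemergence, by directed spray onto soil of a loam–sand blend after sowing, or postemergence on potted plants at the one- to two-leaf stage, 2–10 cm high. Test chemicals were carried in a non-phytotoxic solvent mix with surfactant.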

[2] = tested on: Pigweed, Palmer (palmer amaranth, palmer pigweed, Amaranthus palmeri); assay: Test A1 postemergence, Pigweed, Palmer; conditions: Postemergence
Procedure, shortened: (§2)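 Postemergence species (ragweed, Palmer pigweed, wild oat) were sprayed at one- to two-leaf stage, 2 to 10 cm tall. Corn was treated preemergence by directed soil spray. Both used a loam soil/sand blend and compounds in a non-phytotoxic solvent mixture with surfactant.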

[3] = tested on: ragweed (common ragweed, Ambrosia artemisiifolia); assay: Test A1 postemergence, ragweed; conditions: Postemergence
Procedure, shortened: as §2

[4] = tested on: goosegrass (Eleusine indica); assay: Test A1 preemergence, goosegrass
Procedure, shortened: as §1

[5] = tested on: soybean (Glycine max); assay: Test A1 postemergence, soybean; conditions: Postemergence
Procedure, shortened: (§3)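 Plants grown in pots of loam/sand mix; preemergence = soil-directed spray on seeded pots, postemergence = spray at 1–2 leaves, height 2–10 cm; test chemicals formulated in non-phytotoxic solvent with surfactant.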

[6] = tested on: wheat (Triticum aestivum); assay: Test A1 postemergence, wheat; conditions: Postemergence
Procedure, shortened: as §3

[7] = tested on: kochia (Bassia scoparia); assay: Test A1 postemergence, kochia; conditions: Postemergence
Procedure, shortened: as §3

[8] = 31 g ai/ha, 0 to 100 scale (0 no effect, 100 complete control)
[9] = 125 g ai/ha, 0 to 100 scale, 0 no effect, 100 complete control
[10] = 31 g ai/ha, 0 to 100 scale (0 no effect, 100 complete control), 10 days

Row | SMILES | Plant response rating, Blackgrass [1, 8] | Plant response rating, Blackgrass [1, 9] | Plant response rating, Pigweed, Palmer [2, 10] | Plant response rating, Pigweed, Palmer ([2]; 125 g ai/ha, 0 to 100 scale) | Plant response rating, Ragweed [3, 10] | Plant response rating, Ragweed ([3]; 125 g ai/ha, 0 to 100 scale) | Plant response rating, Goosegrass [4, 8] | Plant response rating, Goosegrass [4, 9] | Plant response rating, Soybean [5, 10] | Plant response rating, Soybean ([5]; 125 g ai/ha, 0 to 100 scale) | Plant response rating, Wheat [6, 10] | Plant response rating, Wheat ([6]; 125 g ai/ha, 0 to 100 scale) | Plant response rating, Kochia [7, 10] | Plant response rating, Kochia ([7]; 125 g ai/ha, 0 to 100 scale)
1 | Cc1c(C2=NO[C@@H]3CCC[C@H]23)cc(N(COC(=O)C(C)(C)C)S(=O)(=O)C(F)(F)F)c(C)c1C [Compound 336, [[(Trifluoromethyl)sulfonyl][2,3,4-trimethyl-5-[(3aR,6aR)-3a,5,6,6a-tetrahydro-4H-cyclopent[d]isoxazol-3-yl]phenyl]amino]methyl 2,2-dimethylpropanoate] | 0 | 0 | 20 | 50 | 50 | 80 | 30 | 70 | 20 | 50 | 0 | 0 | 70 | 80
2 | COc1cc(C)c(C2=NOC3(CCCC3)C2)cc1NS(=O)(=O)C(F)(F)F [Compound 304] | 0 | 40 | 0 | 0 | 0 | 30 | 30 | 90 | 20 | 50 | 0 | 20 | 0 | 20
3 | CCOC(=O)N(c1cc(C(=O)N2C[C@@H](C)O[C@@H](C)C2)c(C)c(C)c1C)S(=O)(=O)C(F)(F)F [Compound 332] | 0 | 0 | 10 | 30 | 80 | 80 | 50 | 90 | 60 | 100 | 10 | 50 | 0 | 10
4 | CCOC1CC(c2cc(N(COC(=O)C(C)(C)C)S(=O)(=O)C(F)(F)F)c(C)cc2C)=NO1 (stereo not shown) [Compound 339] | 0 | 0 | 0 | 20 | 40 | 70 | 0 | 90 | 0 | 10 | 0 | 40 | 30 | 70
5 | Cc1c(NS(=O)(=O)C(F)(F)F)cc(C(=O)N2CCOCC2)c(C)c1C [Compound 289, 1,1,1-Trifluoro-N-[2,3,4-trimethyl-5-(4-morpholinylcarbonyl)phenyl]methanesulfonamide] | 0 | 60 | 10 | 60 | 70 | 80 | 80 | 90 | 40 | 50 | 20 | 50 | 20 | 60
6 | CCOC(=O)N(c1cc(C(=O)N2CCOCC2)c(C)c(C)c1C)S(=O)(=O)C(F)(F)F [Compound 325] | 0 | 40 | 30 | 90 | 0 | 70 | 100 | 100 | 50 | 80 | 30 | 50 | 20 | 50
7 | Cc1cc(C)c(N(COC(=O)C(C)(C)C)S(=O)(=O)C(F)(F)F)cc1C(=O)N1CCC(F)(F)CC1 [Compound 350] | 0 | 0 | 30 | 40 | 80 | 90 | 30 | 90 | 10 | 40 | 0 | 10 | 0 | 60
8 | Cc1cc(Br)c(C2=NOC3CCCC23)cc1NS(=O)(=O)C(F)(F)F (stereo not shown) [Compound 302] | 0 | 0 | 10 | 40 | 30 | 70 | 0 | 90 | 20 | 40 | 0 | 10 | 10 | 50
9 | COCC1CC(c2cc(NS(=O)(=O)C(F)(F)F)c(C)cc2C)=NO1 (stereo not shown) [Compound 319] | 30 | 50 | 0 | 50 | 30 | 60 | 90 | 90 | 20 | 50 | 70 | 70 | 40 | 80
10 | Cc1cc(C)c(C2=NOC3COCC23)cc1NS(=O)(=O)C(F)(F)F (stereo not shown) [Compound 297] | 20 | 40 | 10 | 20 | 30 | 70 | 70 | 90 | 30 | 50 | 10 | 80 | 0 | 60
11 | CCOC(=O)N(c1cc(C(=O)N2CCC(C)CC2)c(C)cc1C)S(=O)(=O)C(F)(F)F [Compound 354] | 0 | 0 | 0 | 10 | 40 | 50 | 70 | 100 | 50 | 60 | 20 | 40 | 40 | 50
12 | CCC1ON=C(c2cc(N(C(=O)OCC(C)C)S(=O)(=O)C(F)(F)F)c(C)cc2C)C1CC (stereo not shown) [Compound 348] | 30 | 70 | 0 | 70 | 10 | 60 | 30 | 90 | 50 | 90 | 0 | 60 | 20 | 70
13 | Cc1c(NS(=O)(=O)C(F)(F)F)cc(C(=O)N2CC(C)OC(C)C2)c(C)c1C (stereo not shown) [Compound 327] | 0 | 30 | 30 | 50 | 70 | 90 | 50 | 90 | 60 | 60 | 0 | 50 | 10 | 30
14 | CCOC(=O)N(c1cc(C(=O)N2CCC(c3ccccc3)CC2)c(C)cc1C)S(=O)(=O)C(F)(F)F [Compound 365] | 0 | 0 | 0 | 0 | 0 | 30 | 10 | 90 | 0 | 60 | 0 | 20 | 10 | 40
15 | Cc1cc(C)c(N(COC(=O)C(C)(C)C)S(=O)(=O)C(F)(F)F)cc1C1=NOC2(C)CCCC12 (stereo not shown) [Compound 341] | 0 | 30 | 0 | 20 | 60 | 80 | 30 | 100 | 40 | 50 | 0 | 70 | 20 | 30
16 | Cc1cc(C)c(C2=NOC3OCCC23)cc1NS(=O)(=O)C(F)(F)F (stereo not shown) [Compound 349] | 50 | 80 | 20 | 70 | 70 | 90 | 90 | 100 | 30 | 70 | 30 | 70 | 70 | 80
17 | COc1cnn(-c2cc(NS(=O)(=O)C(F)(F)F)c(C)cc2C)c(=O)c1OC [Compound 282] | 30 | 60 | 0 | 0 | 60 | 70 | 0 | 90 | 40 | 60 | 60 | 80 | 10 | 30

— US20230278972A1, “SUBSTITUTED HALOALKYL SULFONANILIDE HERBICIDES” (FMC Corporation, priority 2020, published 2023)
